From the NIST ThermoML archive (doi:10.1016/j.jct.2016.11.010)

Test: mn = molality of the nth substance listed, in mol/kg
Settings: 100 kPa, Liquid; for speed of sound: Frequency=3 MHz, Sing-around technique in a fixed-path interferometer; for mass density: Vibrating tube method

O=C([O-])CC(O)(CC(=O)[O-])C(=O)[O-].[Li+].[Li+].[Li+] [trilithium citrate] + O
Settings	mass density, 288.15 K [kg/m3]	mass density, 298.15 K [kg/m3]	mass density, 308.15 K [kg/m3]	mass density, 318.15 K [kg/m3]	speed of sound, 288.15 K [m/s]	speed of sound, 298.15 K [m/s]	speed of sound, 308.15 K [m/s]	speed of sound, 318.15 K [m/s]
m1 = 0.2	1027.57	1025.15	1021.94	1017.98	1509.4	1536	1556.2	1570.5
m1 = 0.4	1052.95	1050.23	1046.82	1042.77	1548.6	1572.7	1590.4	1602.2
m1 = 0.6	1078.48	1075.51	1071.94	1067.78	1589.2	1610.3	1626	1636.1
